Reference: PMC10828251, “A novel PSMA-targeting tracer with highly negatively charged linker demonstrates decreased salivary gland uptake in mice compared to [^68Ga]Ga-PSMA-11” (EJNMMI Radiopharmacy and Chemistry, 2024)
Values joined by “and” are separate entries in the source; they are usually repeats but may differ in a detail not shown here. Equal entries are not always repeated. Where two headings read alike, the source gives them in different places. Numbered stars: 1 amine (or outer) side, 2 acyl side, 3 side chain; on linkers, the order of the positions; unused ones are H or OH. Peptide text beside a SMILES is read from it. * marks the point of attachment. X1 = O=C(O)CN1CCN(CC(=O)O)CC(Cc2ccc(NC(=S)*)cc2)N(CC(=O)O)CC1; DOTA = O=C(O)CN1CCN(CC(=O)O)CCN(CC(=O)*)CCN(CC(=O)O)CC1; γGlu = O=C(O)[CH](CCC(=O)[*:2])N[*:1]; CO = O=C([*:1])[*:2]; Ahx = NCCCCCC(=O)O

What was measured:
GCP-II = target: T1, GCP-II (Homo sapiens, UniProt Q04609); experiment: fluorescent enzymatic inhibition assay (competitive binding assay; NAAG hydrolysis by PC3-PIP membranes, Amplex Red glutamic acid readout); assay type: biochemical; details: upper limit set from the EC50; read-out: upper limit of Ki to PSMA
T1 construct: expressed in transfected cells; host or cells: PC3-PIP cells: washed membrane preparation after freeze-thaw cycles, 10 µg per well
T1 sequence (Q04609 whole entry): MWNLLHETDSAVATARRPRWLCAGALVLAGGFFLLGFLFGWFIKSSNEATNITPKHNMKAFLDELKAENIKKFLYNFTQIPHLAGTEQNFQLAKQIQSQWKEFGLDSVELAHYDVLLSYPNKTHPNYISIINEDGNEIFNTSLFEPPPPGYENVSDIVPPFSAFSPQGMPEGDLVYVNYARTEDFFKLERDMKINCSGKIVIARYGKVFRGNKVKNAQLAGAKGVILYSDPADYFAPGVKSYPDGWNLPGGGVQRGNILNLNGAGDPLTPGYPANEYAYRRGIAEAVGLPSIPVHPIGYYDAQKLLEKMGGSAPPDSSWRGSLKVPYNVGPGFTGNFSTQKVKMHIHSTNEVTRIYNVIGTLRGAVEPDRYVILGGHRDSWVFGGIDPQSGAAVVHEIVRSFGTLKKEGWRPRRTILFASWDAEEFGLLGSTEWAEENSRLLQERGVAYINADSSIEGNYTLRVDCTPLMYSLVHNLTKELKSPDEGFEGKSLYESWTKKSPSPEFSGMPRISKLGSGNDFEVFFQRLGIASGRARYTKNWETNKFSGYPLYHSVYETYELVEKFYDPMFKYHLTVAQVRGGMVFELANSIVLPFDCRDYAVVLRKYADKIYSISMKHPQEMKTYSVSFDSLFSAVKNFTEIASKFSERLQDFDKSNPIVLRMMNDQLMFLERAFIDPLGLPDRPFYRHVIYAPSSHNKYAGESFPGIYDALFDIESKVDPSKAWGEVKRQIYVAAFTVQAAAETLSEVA
Protocol: Binding affinity of JB-1498 toward GCP-II was determined using fluorescent enzymatic inhibition assay (Kozikowski et al. [2004]) as detailed in the Additional file 1.
PC3-PIP PSMA expressing cells were grown to confluency, harvested in 50mM Tris-HCl, pH 7.5 and subjected to 4 freezing and thawing cycles. Cell membranes were washed three times by centrifugation at 12,000g or higher. The cell membrane mixture was diluted to a concentration of 50 mg/mL in 50mM Tris-HCl, pH 7.5 (based on wet weight of the solid after centrifugation) and stored in a -80°C freezer until ready to use.
The assays were conducted on 96-well plates. […] Then the glutamic acid concentration was measured with Amplex Red glutamic acid assay kit (Invitrogen-Molecular Probes, now part of Thermo Fisher Scientific, Waltham, MA)) using a fluorescent plate reader (excitation at 530nm, measuring emission at 590nm). The fluorescence signals at 590nm were then normalized and normalized fluorescence was plotted against the Log concentration of JB1498 ligand (Figure 1). EC50 was determined using the equation: Fluorescence = baseline + (max fluorescence – baseline) […]. Microsoft Excel and KaleidaGraph (Synergy Software, Reading, PA) were used for data processing and graphing.

[1] = assessment of stability (radiolysis) by radio-HPLC; assay type: physicochemical; details: for degradation on radio-HPLC after Ga-68 labeling without radioprotectant: aqueous sodium acetate buffer
Protocol: The compound in Figure 7 was not further developed as a potential theranostic agent since the need for a radioprotectant with Ga-68 labeling indicated potentially significant instability with high dose beta and alpha emitters.
Figure 8. Radio-HPLC trace of the compound in Figure 7 seventy minutes after labeling with Ga-68. The labeling reaction consisted of 2 μL of the compound (0.5mg/mL), 40 μL of NaOAc Buffer B, 5 μL ascorbic acid (100mg/mL) and 0.2mL of Eckert & Ziegler GalliaPharm Generator eluate. Buffer B composition is stated above. The HPLC gradient used was 5%-95%B in 15 minutes where solvent B is acetonitrile and solvent A is water with 0.1% formic acid. Column: Phenomenex Synergi Hydro-RP 80A 150x4.6mm 4 micrometer column (Phenomenex, Torrance, CA).
Figure 10. Radio-HPLC trace of [^68Ga]Ga-JB-1498 immediately after radiolabeling. The small signal at the solvent front is a very small amount of [^68Ga]GaCl3. The labeling reaction contained 2 μL of JB1498 (0.5mg/mL), 40 μL of NaOAc Buffer B and 0.2mL of Eckert & Ziegler GalliaPharm Generator eluate. Buffer B composition is stated above. The HPLC gradient used was 5%-95%B in 15 minutes where solvent B is acetonitrile and solvent A is water with 0.1% formic acid. Column: Waters (Milford, MA) Symmetry C18, 5μm, 4.6 x 150 mm column.

[2] = system: PC3-PIP PSMA-expressing cell line; experiment: initial biodistribution study, low molar activity, PC3-PIP tumor-bearing NSG mice; assay type: in vivo; details: 1 hour after injection, specific activity below 7.4 GBq/μmol; for Biodistribution, Tumor: PC3-PIP PSMA+ tumor, NSG mice
Protocol: Radiolabeling of JB-1498 for the initial biodistribution study was performed using [^68Ga]GaCl3 from a spent ^68Ge/^68Ga generator from Isotopen Technologies Garching (Garching, Germany, currently ITM). JB-1498 with [^68Ga]GaCl3 was heated in aqueous sodium acetate buffer at pH 4–5 and 97 C for 7 min. The reaction product was HPLC-purified for the biodistribution study as detailed in the Additional file 1. The molar activity of the purified product was less than 7.4 GBq/μmol (200 Ci/mmol) at the conclusion of synthesis.
For the initial biodistribution study in tumor bearing mice, 3 male 10 week-old NSG mice (NOD.Cg-Prkdc^scidIl2rg^tm1Wjl/SzJ) were inoculated subcutaneously with 4 million cells of PC3-PIP PSMA-expressing cell line. Mice were housed in a specific pathogen free, temperature- and humidity-controlled environment, in standard micro-isolator top cages with ad libitum access to chow. Biodistribution studies were conducted when the long axis of the tumor exceeded 1 cm. Each mouse was injected with 100 μL of the [^68Ga]Ga-JB-1498 solution under isoflurane anesthesia via retro-orbital injection in the right eye and euthanized 1 h after injection. Major organs (including the left salivary glands) were dissected for radioactivity quantification. The dose injected was 0.74 ± 0.27 MBq.

[3] = high molar activity biodistribution study in non-tumor-bearing NSG mice; assay type: in vivo; details: 1 hour after injection, high specific activity 59 GBq/μmol
Protocol: For the high molar activity biodistribution and imaging study, a fresh 1.85 GBq (50mCi) GalliaPharm Gallium-68 generator from Eckert & Ziegler (Berlin, Germany) was used. Radiolabeling of JB-1498 with [^68Ga]GaCl3 was performed in aqueous sodium acetate buffer at pH 4–5 and 98 °C for 10 min. The reaction product was diluted with water, loaded onto an Oasis HLB cartridge, washed with water, and eluted with 2:1 PBS:EtOH as detailed in the Additional file 1. The fractions with highest radioactivity were diluted with saline for injection in mice. Please refer to Additional file 1: Figs. 4 and Fig. 5 for HPLC traces of the products prior to and after solid phase extraction. The molar activity of the purified product was estimated to be 59 GBq/μmol (1600 Ci/mmol) at the time of first injection. [^68Ga]Ga-PSMA-11 was produced concurrently by incubating [^68Ga]GaCl3 and PSMA-11 precursor in sodium acetate buffer at pH 4–5 at room temperature for 10 min. Please refer to Additional file 1: Fig. 6 for HPLC trace of the product. The molar activity of the product was estimated to be 48 GBq/μmol (1300 Ci/mmol) at the time of first injection.
For the high molar activity biodistribution study aimed at maximizing salivary gland uptake, 3 male NSG mice without tumor were injected with 100μL of the [^68Ga]Ga-JB-1498 solution under anesthesia via retro-orbital injection per the above-described protocol. The dose injected was 1.31 ± 0.26 MBq.

[4] = micro-PET imaging in non-tumor-bearing NSG mice; assay type: in vivo; details: for course of activity in salivary glands and kidneys, dynamic micro-PET: during the first hour
Protocol: For the micro-PET imaging study, high molar activity [^68Ga]Ga-JB-1498 and [^68Ga]Ga-PSMA-11 were administered to non-tumor bearing NSG mice via tail vein injection. The dose injected was 5.3MBq of [^68Ga]Ga-PSMA-11 and 4.4 MBq of [^68Ga]Ga-JB-1498. Imaging was performed on a nanoScan PET/CT instrument (Mediso USA, Arlington, Virginia). List mode PET acquisition was performed for 45 min starting 25 min post-injection. CT was performed for PET attenuation correction and anatomic localization.

[5] = system: PSMA-expressing metastatic prostate cancer; set-up: method as in Sartor et al. [2021]; details: 7.4 GBq (200 mCi) regimen; ref Sartor et al. [2021]; cited from earlier work
LNCaP cell line = system: LNCaP cell line; set-up: method as in Rousseau et al. [2018]; details: NSG mice, one hour after injection, ref Rousseau et al. [2018], cited from earlier work
[6] = N=3, listed as [^68Ga]Ga-JB1498
[7] = LNCaP tumor model, listed as [^68Ga]Ga-PSMA 11

## NC(=O)C(CCCCNC(=O)CN1CCN(CC(=O)O)CCN(CC(=O)O)CCN(CC(=O)O)CC1)NC(=O)C(Cc1ccc(O)cc1)NC(=O)C(CCC(=O)O)NC(=O)C(CCC(=O)O)NC(=O)C(CCC(=O)O)NC(=O)CCCCCNC(=O)CCC(NC(=O)NC(CCC(=O)O)C(=O)O)C(=O)O (centres unmarked) [JB-1498] ({Glu-CO-γGlu-Ahx}-EEEYK(DOTA)-NH2; configuration not given here)
GCP-II
  Ki: < 0.3 nM

## NC(=O)C(CCCCNC(=S)Nc1ccc(CC2CN(CC(=O)O)CCN(CC(=O)O)CCN2CC(=O)O)cc1)NC(=O)C(Cc1ccc(O)cc1)NC(=O)C(CCC(=O)O)NC(=O)C(CCC(=O)O)NC(=O)C(CCC(=O)O)NC(=O)CCCCCNC(=O)CCC(NC(=O)NC(CCC(=O)O)C(=O)O)C(=O)O (centres unmarked) (68Ga complex, metal not drawn) [compound in Figure 7] ({Glu-CO-γGlu-Ahx}-EEEYK(X1)-NH2; configuration not given here)
[1]; aqueous sodium acetate buffer with ascorbic acid
  stability on radio-HPLC after Ga-68 labeling with radioprotectant: reasonable stability with minimal degradation
[1]; no radioprotectant
  degradation on radio-HPLC after Ga-68 labeling without radioprotectant: multiple peaks in radio-HPLC
[1]; in the presence of ascorbic acid
  radiolysis on radio-HPLC two hours after radiolabeling: some radiolysis

## NC(=O)C(CCCCNC(=O)CN1CCN(CC(=O)O)CCN(CC(=O)O)CCN(CC(=O)O)CC1)NC(=O)C(Cc1ccc(O)cc1)NC(=O)C(CCC(=O)O)NC(=O)C(CCC(=O)O)NC(=O)C(CCC(=O)O)NC(=O)CCCCCNC(=O)CCC(NC(=O)NC(CCC(=O)O)C(=O)O)C(=O)O.[68Ga] (centres unmarked) [[^68Ga]Ga-JB-1498] ({Glu-CO-γGlu-Ahx}-EEEYK(DOTA)-NH2; configuration not given here)
[2]
  Biodistribution, Tumor: 12.09%ID/gram of tissue and 10.49%ID/gram of tissue
[2]; listed as [^68Ga]Ga-JB1498
  Biodistribution, Tumor: 12.09 ± 1.28 %ID/gram of tissue
[2]; PSMA+ tumor-bearing NSG mice
  Biodistribution, Blood: 0.22%ID/gram of tissue
  Biodistribution, Bone: 0.11%ID/gram of tissue and 0.10%ID/gram of tissue
  Biodistribution, Heart: 0.12%ID/gram of tissue and 0.11%ID/gram of tissue
  Biodistribution, Liver: 0.20%ID/gram of tissue and 0.18%ID/gram of tissue
  Biodistribution, Lung: 0.24%ID/gram of tissue and 0.21%ID/gram of tissue
  Biodistribution, Muscle: 0.22%ID/gram of tissue and 0.19%ID/gram of tissue
  Biodistribution, Salivary gland: 0.13 ± 0.01 %ID/gram of tissue and 0.13%ID/gram of tissue and 0.11%ID/gram of tissue
[2]; PSMA+ tumor-bearing NSG mice, 2 splenic samples
  Biodistribution, Spleen: 0.31%ID/gram of tissue and 0.27%ID/gram of tissue
[2]; PSMA+ tumor-bearing NSG mice, listed as [^68Ga]Ga-JB1498
  Biodistribution, Liver: 0.20 ± 0.09 %ID/gram of tissue
[2]; PSMA+ tumor-bearing NSG mice, single sample of left kidney
  Biodistribution, Kidney: 12.98%ID/gram of tissue
[3]; N=3
  Biodistribution, Blood: 0.39%ID/gram of tissue
  Biodistribution, Combined Salivary gland: 0.39%ID/gram of tissue
  Biodistribution, Kidney: 10.12%ID/gram of tissue
  Biodistribution, Liver: 0.68%ID/gram of tissue
  Biodistribution, Lung: 0.66%ID/gram of tissue
  Biodistribution, Spleen: 2.34%ID/gram of tissue
  Biodistribution, parotid (Left): 0.36%ID/gram of tissue
  Biodistribution, submandibular (Left): 0.42%ID/gram of tissue
[3]; [6]
  Biodistribution, Combined Salivary gland: 0.39 ± 0.24 %ID/gram of tissue
  Biodistribution, Kidney: 10.12 ± 1.73 %ID/gram of tissue
[4]; 1 h post injection, same SUV grayscale
  salivary gland (SG) and background activity on micro-PET compared to [68Ga]Ga-PSMA-11: very little
[4]; 1 h post injection, most of injected tracer in the urinary bladder
  tracer excretion on micro-PET: rapid tracer excretion via the kidneys
[4]; 1 h post-injection, tail vein, non-tumor bearing NSG mice
  salivary gland and kidney uptake on micro-PET images compared to [68Ga]Ga-PSMA-11: much lower
[4]
  course of activity in salivary glands and kidneys, dynamic micro-PET: gradually decreasing
[1]; no radioprotectant
  degradation on radio-HPLC after Ga-68 labeling without radioprotectant: no significant degradation
[1]; no radioprotectant, compared to trace immediately after radiolabeling
  radiolysis on radio-HPLC 2.5 hours after synthesis: no significant radiolysis

## [^177Lu]Lu-PSMA-617
[5]
  complete response: 9%
  partial response: 42%

## O=C([O-])CN(CCN(CC(=O)[O-])Cc1cc(CCC(=O)NCCCCCC(=O)NCCCC[C@H](NC(=O)N[C@@H](CCC(=O)O)C(=O)O)C(=O)O)ccc1[O-])Cc1cc(CCC(=O)O)ccc1[O-].[68Ga+3].[OH3+] [[^68Ga]Ga-PSMA-11]
[4]
  course of activity in salivary glands and kidneys, dynamic micro-PET: gradually increasing
LNCaP cell line; LNCaP tumor model
  Biodistribution, Blood: 0.31%ID/gram of tissue
  Biodistribution, Kidney: 182.0 ± 33.5 %ID/gram of tissue
  Biodistribution, Liver: 0.44%ID/gram of tissue
  Biodistribution, Muscle: 0.54%ID/gram of tissue
  Biodistribution, Salivary gland: 10.00 ± 2.52 %ID/gram of tissue
  Biodistribution, Spleen: 22.20%ID/gram of tissue
LNCaP cell line; [7]
  Biodistribution, Kidney: 182.00%ID/gram of tissue
  Biodistribution, Salivary gland: 10.00%ID/gram of tissue
LNCaP cell line; LNCaP tumor
  Biodistribution, Tumor: 8.67%ID/gram of tissue
